Like-named read-outs stand apart in the source and are kept apart here.
What was measured:
[1] = biological target: T1, Ba/F3 ERBB2 A775_G776insYVMA (Homo sapiens, UniProt P04626, DUP772-775, cells depend on it); experiment: Cell viability assay (CellTiter Glo); assay type: cell-based, mouse; conditions: 72 hours
T1 construct: Ba/F3 cell lines were engineered to express human ERBB2 or EGFR kinases, rendering the cells IL-3 independent
Procedure: (§1) Cells were treated with compounds, and cell viability was measured as a metric of kinase inhibition.
(§2) The Ba/F3 cell line is IL-3-dependent mouse cell line derived from the C3H mouse strain. Ba/F3 cell lines were engineered to express human ERBB2 or EGFR kinases, rendering the cells IL-3 independent. The lines were generated via retroviral transduction utilizing a Moloney murine leukemia virus (MMLV) promoter, and constructs are stably integrated into the cell genome.
(§3) Similarly, Ba/F3 cell lines engineered to express EGFR, ERBB2, or ERBB2 mutants were grown, harvested, counted and seeded at 3000 cells per well in 96-well plates for the data sets shown in Tables B3-B4, and seeded at 300 cells per well in 384-well plates for the data set shown in Table B5. A subset of wells contained media only (low control, “LC”).
(§4) Table B2 provides the growth media and number of cells seeded per well for the each cell line.
(§5) Compounds were dissolved in DMSO and serially diluted. Serially-diluted compound or a DMSO only control (high control, “HC”) was added to the plated cells in each well. […] The final proportion of DMSO never exceeded 0.1%.
(§6) Plates were placed in a 37° C., 5% CO2 incubator for 72 hours. Plates were then removed from the incubator and equilibrated for 15 minutes at room temperature. 40 IA of CellTiter Glo reagent (Promega) was added to measure the relative level of metabolically active cells by quantifying intracellular ATP concentrations. Plates were incubated for 30 minutes at room temperature, and luminescence was measured. Percent viability was normalized to a vehicle control only using the following formula: % viability=100×(LumSample−LumLC) (LumHC−LumLC). Graphical curves were fitted using a nonlinear regression model with a sigmoidal dose response.

[2] = biological target: T2, Ba/F3 ERBB2 wt (Homo sapiens, UniProt P04626); experiment: Cell viability assay (CellTiter Glo); assay type: cell-based, mouse; conditions: 72 hours; 3000 cells per well, 96-well plates; read-out: Cell viability IC50, nM, Ba/F3 ERBB2 wt
T2 construct: Ba/F3 cell lines were engineered to express human ERBB2 or EGFR kinases, rendering the cells IL-3 independent
Procedure: as §1, §2, §3, §4, §5, §6

[3] = biological target: T3, Ba/F3 ERBB2-G776VC (Homo sapiens, UniProt P04626, DELINS776-776VC, cells depend on it); experiment: Cell viability assay (CellTiter Glo); assay type: cell-based, mouse; conditions: 72 hours; 3000 cells per well, 96-well plates; read-out: Cell viability IC50, nM, Ba/F3 ERBB2-G776VC
T3 construct: Ba/F3 cell lines were engineered to express human ERBB2 or EGFR kinases, rendering the cells IL-3 independent
Procedure: as §1, §2, §3, §4, §5, §6

[4] = biological target: T4, Ba/F3 ERBB2-L755S (Homo sapiens, UniProt P04626, L755S, cells depend on it); experiment: Cell viability assay (CellTiter Glo); assay type: cell-based, mouse; conditions: 72 hours; 3000 cells per well, 96-well plates; read-out: Cell viability IC50, nM, Ba/F3 ERBB2-L755S
T4 construct: Ba/F3 cell lines were engineered to express human ERBB2 or EGFR kinases, rendering the cells IL-3 independent
Procedure: as §1, §2, §3, §4, §5, §6

[5] = biological target: T5, Ba/F3 ERBB2-L869R (Homo sapiens, UniProt P04626, L869R, cells depend on it); experiment: Cell viability assay (CellTiter Glo); assay type: cell-based, mouse; conditions: 72 hours; 3000 cells per well, 96-well plates; read-out: Cell viability IC50, nM, Ba/F3 ERBB2-L869R
T5 construct: Ba/F3 cell lines were engineered to express human ERBB2 or EGFR kinases, rendering the cells IL-3 independent
Procedure: as §1, §2, §3, §4, §5, §6

[6] = biological target: T6, Ba/F3 ERBB2-T798M (Homo sapiens, UniProt P04626, T798M, cells depend on it); experiment: Cell viability assay (CellTiter Glo); assay type: cell-based, mouse; conditions: 72 hours; 3000 cells per well, 96-well plates; read-out: Cell viability IC50, nM, Ba/F3 ERBB2-T798M
T6 construct: Ba/F3 cell lines were engineered to express human ERBB2 or EGFR kinases, rendering the cells IL-3 independent
Procedure: as §1, §2, §3, §4, §5, §6

[7] = biological target: T7, Ba/F3 ERBB2-V777L (Homo sapiens, UniProt P04626, V777L, cells depend on it); experiment: Cell viability assay (CellTiter Glo); assay type: cell-based, mouse; conditions: 72 hours; 3000 cells per well, 96-well plates; read-out: Cell viability IC50, nM, Ba/F3 ERBB2-V777L
T7 construct: Ba/F3 cell lines were engineered to express human ERBB2 or EGFR kinases, rendering the cells IL-3 independent
Procedure: as §1, §2, §3, §4, §5, §6

[8] = biological target: T8, Ba/F3 ERBB2-V777_G778insGC (Homo sapiens, UniProt P04626, INS778CG, cells depend on it); experiment: Cell viability assay (CellTiter Glo); assay type: cell-based, mouse; conditions: 72 hours; 3000 cells per well, 96-well plates; read-out: Cell viability IC50, nM, Ba/F3 ERBB2-V777_G778insGC
T8 construct: Ba/F3 cell lines were engineered to express human ERBB2 or EGFR kinases, rendering the cells IL-3 independent
Procedure: as §1, §2, §3, §4, §5, §6

[9] = biological target: T9, Ba/F3 ERBB2-P780_Y781insGSP (Homo sapiens, UniProt P04626, DUP778-780, cells depend on it); experiment: Cell viability assay (CellTiter Glo); assay type: cell-based, mouse; conditions: 72 hours; 3000 cells per well, 96-well plates; read-out: Cell viability IC50, nM, Ba/F3 ERBB2-P780_Y781insGSP
T9 construct: Ba/F3 cell lines were engineered to express human ERBB2 or EGFR kinases, rendering the cells IL-3 independent
Procedure: as §1, §2, §3, §4, §5
as §6, with “Percent viability was normalized to a vehicle control only using the following formula: % viability=100×(LumSample−LumLC) (LumHC−LumLC).” left out

[10] = system: BT-474 cells; experiment: Cell viability assay (CellTiter Glo); assay type: cell-based; conditions: Homo sapiens, 72 hours, 2000 cells per well, 384-well, DMEM + 10% FBS
Procedure: as §1, §2, §3, §4, §5, §6

[11] = biological target: T10, phosphorylated ERBB2 (pERBB2) (Homo sapiens, UniProt P04626); experiment: Detection of phosphorylated ERBB2 (pERBB2) by ELISA in BT-474 cells; assay type: cell-based; conditions: four hours incubation with compound, OD 450 nm
T10 construct: endogenous in cells; host or cells: BT-474
Procedure: BT-474 cells were seeded into a 96-well at 2.0*10^4 cells/100 μl/well.
Compounds were dissolved and serially diluted in DMSO. The compounds were then were added, mixed, and incubated for four hours at 37° C., 5% CO2. Compounds were added using four-fold dilutions at final concentrations ranging from 10 μM to 0.01 nM.
Following the four hour incubation with compounds, cell lysates were prepared. Plates were centrifuged for 5 min at 3000 RPM, and supernatant was removed from each well. Cells were washed 3 times by resuspension in 150 μl PBS, followed by centrifugation and removal of the supernatant, as above. […] Cells were incubated with lysis buffer for 1 hour at 4° C., and then stored at −80° C.
Enzyme-linked immunosorbent assays (ELISA) were performed to measure phosphorylated ERBB2 levels. […] The next day, plates were washed with PBS+0.05% Tween20 (PBST). 150 μl of 5% BSA blocking solution was added for 1 hour at room temperature, with shaking. Plates were washed with PBST. Cell lysates were thawed and 100 μl of lysate was added to the ELISA plate. The plates were incubated for 2 hours at room temperature, with shaking. […] Plates were incubated for 1 hour at room temperature, with shaking. Plates were then washed with PBST, and 100 μl TMB substrate solution (R&D Systems, cat #DY999) was added. Plate were incubated in the dark for 20 minutes at room temperature. 50 μl of Stop solution (R&D Systems, cat #DY994) (50 μl) was added to each well and mixed.
Optical density at 450 nm was read on an EnSpire plate reader (Perkin Elmer). The remaining kinase activity by calculated using the following formula: % Relative activity=100×(A450sample−A450LC)/(A450HC−A450LC). The low and high control values (“LC” and “HC”) were generated from lysate from wells without cells or with cells treated with 0.1% DMSO, respectively.

[12] = biological target: T11, phosphorylated EGFR (pEGFR) (Homo sapiens, UniProt P00533); experiment: Detection of phosphorylated EGFR (pEGFR) in EGF-stimulated A431 cells (AlphaLISA); assay type: cell-based; conditions: A431 cells (10% FBS), 4 hours with compound, then EGF 30 ng/mL for 10 minutes
T11 construct: endogenous in cells; host or cells: A431
Procedure: Enzyme-linked immunosorbent assays (ELISA) were performed to measure phosphorylated EGFR levels using A431 cells (10% FBS). A431 (1.0*10^4 cells/40 μl/well) cells were seeded in 384 well. Compounds were dissolved in DMSO, serially diluted in DMSO and then were added, mixed, and incubated for 4 hours at 37° C., 5% CO2. Following the 4-hours incubation, cells were stimulated for 10 minutes with EGF (Invitrogen, cat #PHG0311) at a final concentration of 30 ng/mL in the incubator. The media was aspirated and cells were lysed in 10 μL lysis buffer with protease and phosphatase inhibitors (PerkinElmer, cat #ALSU-PEGFR-A50K). The plates were placed on a shaker for 5 minutes and then incubated for 30 min at 4° C. for complete lysis. The lysate was transferred to an Optiplate (Perkin Elmer, cat #6007290).
Acceptor mix (PerkinElmer, cat #ALSU-PEGFR-A50K) was prepared just before use and 5 μL was dispensed to all the wells, followed by a 1.5-2 h incubation at room temperature in dark. The donor mix (PerkinElmer, cat #ALSU-PEGFR-A50K) was prepared under low light conditions prior to use and […] of donor mix was added to all the wells under subdued lighting or green filters. The plates were placed on a shaker for 5 min, sealed, and incubated overnight at room temperature in dark. Plates were read on the Envision (PerkinElmer) using standard AlphaLISA settings.
The percentage of inhibition on EGFR phosphorylation was calculated following equation: % Inhibition=100×(LumHC−LumSample)/(LumHC−LumLC). The low and high controls (LC/HC) are generated from lysate from wells with cells treated with DMSO or […] Staurosporine (BioAustralis, cat #BIA-S1086), […]. IC50 values were calculated by fitting the Curve using XLfit (v5.3.1.3), equation 201: Y=Bottom+(Top−Bottom)/(1+10^((LogIC50−X)*HillSlope)).

[13] = 300 cells per well, 384-well plates (Table B5), read-out: Cell Line: Ba/F3 ERBB2 A775 G776ins YVMA IC50

T11 sequence (P00533 25-1210): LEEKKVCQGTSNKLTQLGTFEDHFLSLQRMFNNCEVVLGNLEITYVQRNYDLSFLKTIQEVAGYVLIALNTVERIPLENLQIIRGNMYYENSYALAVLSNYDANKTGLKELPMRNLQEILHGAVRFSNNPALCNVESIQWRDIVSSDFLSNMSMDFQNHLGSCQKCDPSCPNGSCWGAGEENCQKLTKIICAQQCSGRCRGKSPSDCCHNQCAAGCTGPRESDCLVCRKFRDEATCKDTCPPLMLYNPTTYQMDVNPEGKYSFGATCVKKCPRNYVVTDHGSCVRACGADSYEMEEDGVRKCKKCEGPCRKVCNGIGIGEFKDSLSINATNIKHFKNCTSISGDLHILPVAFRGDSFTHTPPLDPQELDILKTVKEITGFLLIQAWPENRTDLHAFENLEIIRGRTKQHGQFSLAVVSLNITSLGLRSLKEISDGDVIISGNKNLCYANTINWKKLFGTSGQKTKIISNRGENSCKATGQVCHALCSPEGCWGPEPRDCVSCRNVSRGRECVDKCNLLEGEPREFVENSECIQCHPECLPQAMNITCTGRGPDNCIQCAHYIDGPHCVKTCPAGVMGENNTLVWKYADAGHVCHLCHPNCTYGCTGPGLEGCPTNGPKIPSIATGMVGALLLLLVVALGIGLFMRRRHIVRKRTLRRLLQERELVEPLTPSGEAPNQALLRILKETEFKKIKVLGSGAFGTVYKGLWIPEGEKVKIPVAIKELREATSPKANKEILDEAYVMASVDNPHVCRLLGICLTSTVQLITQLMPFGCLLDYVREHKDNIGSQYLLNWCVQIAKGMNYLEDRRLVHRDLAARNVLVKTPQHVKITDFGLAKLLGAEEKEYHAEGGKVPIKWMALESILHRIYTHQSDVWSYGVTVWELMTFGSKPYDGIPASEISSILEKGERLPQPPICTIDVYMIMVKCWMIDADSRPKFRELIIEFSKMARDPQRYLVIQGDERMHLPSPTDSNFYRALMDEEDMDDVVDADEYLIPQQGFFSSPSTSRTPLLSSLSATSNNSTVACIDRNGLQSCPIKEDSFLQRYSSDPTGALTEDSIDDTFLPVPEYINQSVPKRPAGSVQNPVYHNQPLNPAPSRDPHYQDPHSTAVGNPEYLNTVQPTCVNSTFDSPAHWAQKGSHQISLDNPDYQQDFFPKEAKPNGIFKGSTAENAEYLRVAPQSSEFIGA
T10 sequence (P04626 23-1255): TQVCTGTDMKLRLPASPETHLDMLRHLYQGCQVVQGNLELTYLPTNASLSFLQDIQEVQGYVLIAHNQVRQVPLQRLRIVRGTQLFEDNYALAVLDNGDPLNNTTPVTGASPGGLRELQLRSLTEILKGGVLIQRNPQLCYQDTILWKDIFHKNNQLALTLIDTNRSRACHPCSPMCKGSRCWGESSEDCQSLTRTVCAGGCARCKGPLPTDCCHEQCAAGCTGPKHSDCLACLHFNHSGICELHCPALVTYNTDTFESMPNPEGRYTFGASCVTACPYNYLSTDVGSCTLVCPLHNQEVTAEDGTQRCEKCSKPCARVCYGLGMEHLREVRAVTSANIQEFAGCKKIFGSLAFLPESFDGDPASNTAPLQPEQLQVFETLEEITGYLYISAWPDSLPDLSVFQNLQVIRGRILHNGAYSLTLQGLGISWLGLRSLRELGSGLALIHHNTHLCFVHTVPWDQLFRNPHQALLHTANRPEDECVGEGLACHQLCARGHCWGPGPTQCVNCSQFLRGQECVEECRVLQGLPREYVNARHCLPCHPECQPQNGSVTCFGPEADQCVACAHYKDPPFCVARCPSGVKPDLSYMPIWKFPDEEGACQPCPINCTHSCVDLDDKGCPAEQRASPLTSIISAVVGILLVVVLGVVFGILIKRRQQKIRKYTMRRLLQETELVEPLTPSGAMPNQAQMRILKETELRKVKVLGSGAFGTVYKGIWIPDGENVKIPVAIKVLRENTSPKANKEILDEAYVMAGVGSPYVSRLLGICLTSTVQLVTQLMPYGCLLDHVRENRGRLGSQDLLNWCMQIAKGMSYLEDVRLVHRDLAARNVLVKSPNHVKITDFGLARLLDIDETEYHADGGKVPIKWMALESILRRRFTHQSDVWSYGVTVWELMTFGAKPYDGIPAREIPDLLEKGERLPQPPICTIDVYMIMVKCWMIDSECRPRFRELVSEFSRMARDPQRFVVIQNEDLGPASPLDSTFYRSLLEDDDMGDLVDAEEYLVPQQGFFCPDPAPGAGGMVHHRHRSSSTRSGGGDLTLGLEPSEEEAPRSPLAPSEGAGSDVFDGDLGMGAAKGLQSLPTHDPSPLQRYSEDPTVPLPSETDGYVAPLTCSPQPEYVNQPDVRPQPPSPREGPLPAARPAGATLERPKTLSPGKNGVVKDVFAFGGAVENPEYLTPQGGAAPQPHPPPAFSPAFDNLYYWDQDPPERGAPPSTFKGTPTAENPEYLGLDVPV
T1 sequence (P04626 with tags, fused parts or gaps DUP772-775): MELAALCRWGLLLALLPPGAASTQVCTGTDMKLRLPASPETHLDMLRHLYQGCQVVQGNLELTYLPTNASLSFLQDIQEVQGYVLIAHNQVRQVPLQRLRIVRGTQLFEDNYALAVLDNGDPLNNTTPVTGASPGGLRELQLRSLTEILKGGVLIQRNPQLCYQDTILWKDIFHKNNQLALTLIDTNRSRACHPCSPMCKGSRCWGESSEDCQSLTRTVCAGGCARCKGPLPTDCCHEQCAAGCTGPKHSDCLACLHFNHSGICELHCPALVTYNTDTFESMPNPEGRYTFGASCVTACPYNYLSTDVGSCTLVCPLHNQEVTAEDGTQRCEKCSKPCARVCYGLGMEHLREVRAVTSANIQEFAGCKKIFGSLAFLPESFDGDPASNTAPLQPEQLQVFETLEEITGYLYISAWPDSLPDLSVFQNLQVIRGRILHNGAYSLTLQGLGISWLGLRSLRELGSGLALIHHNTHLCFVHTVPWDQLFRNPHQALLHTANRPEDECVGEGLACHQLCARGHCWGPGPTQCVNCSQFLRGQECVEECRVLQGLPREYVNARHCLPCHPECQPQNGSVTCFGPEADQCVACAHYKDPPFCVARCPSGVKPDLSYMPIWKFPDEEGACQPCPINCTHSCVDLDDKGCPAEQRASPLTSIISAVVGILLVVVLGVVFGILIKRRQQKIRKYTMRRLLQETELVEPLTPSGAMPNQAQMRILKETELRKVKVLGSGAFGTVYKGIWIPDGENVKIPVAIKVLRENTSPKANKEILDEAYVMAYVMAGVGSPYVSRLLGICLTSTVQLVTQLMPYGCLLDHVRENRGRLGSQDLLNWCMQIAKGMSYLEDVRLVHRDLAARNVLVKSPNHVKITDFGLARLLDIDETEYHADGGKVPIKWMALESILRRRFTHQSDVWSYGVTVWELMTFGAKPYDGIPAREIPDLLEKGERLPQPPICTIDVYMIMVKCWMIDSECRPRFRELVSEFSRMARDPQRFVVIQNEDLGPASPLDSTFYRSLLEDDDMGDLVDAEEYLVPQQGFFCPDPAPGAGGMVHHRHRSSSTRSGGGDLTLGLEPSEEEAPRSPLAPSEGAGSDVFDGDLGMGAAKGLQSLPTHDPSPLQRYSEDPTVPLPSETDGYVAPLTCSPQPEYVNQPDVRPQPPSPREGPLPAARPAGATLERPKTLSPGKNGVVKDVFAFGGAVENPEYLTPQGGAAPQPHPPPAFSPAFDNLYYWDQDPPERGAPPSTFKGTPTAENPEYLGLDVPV
T9 sequence (P04626 with tags, fused parts or gaps DUP778-780): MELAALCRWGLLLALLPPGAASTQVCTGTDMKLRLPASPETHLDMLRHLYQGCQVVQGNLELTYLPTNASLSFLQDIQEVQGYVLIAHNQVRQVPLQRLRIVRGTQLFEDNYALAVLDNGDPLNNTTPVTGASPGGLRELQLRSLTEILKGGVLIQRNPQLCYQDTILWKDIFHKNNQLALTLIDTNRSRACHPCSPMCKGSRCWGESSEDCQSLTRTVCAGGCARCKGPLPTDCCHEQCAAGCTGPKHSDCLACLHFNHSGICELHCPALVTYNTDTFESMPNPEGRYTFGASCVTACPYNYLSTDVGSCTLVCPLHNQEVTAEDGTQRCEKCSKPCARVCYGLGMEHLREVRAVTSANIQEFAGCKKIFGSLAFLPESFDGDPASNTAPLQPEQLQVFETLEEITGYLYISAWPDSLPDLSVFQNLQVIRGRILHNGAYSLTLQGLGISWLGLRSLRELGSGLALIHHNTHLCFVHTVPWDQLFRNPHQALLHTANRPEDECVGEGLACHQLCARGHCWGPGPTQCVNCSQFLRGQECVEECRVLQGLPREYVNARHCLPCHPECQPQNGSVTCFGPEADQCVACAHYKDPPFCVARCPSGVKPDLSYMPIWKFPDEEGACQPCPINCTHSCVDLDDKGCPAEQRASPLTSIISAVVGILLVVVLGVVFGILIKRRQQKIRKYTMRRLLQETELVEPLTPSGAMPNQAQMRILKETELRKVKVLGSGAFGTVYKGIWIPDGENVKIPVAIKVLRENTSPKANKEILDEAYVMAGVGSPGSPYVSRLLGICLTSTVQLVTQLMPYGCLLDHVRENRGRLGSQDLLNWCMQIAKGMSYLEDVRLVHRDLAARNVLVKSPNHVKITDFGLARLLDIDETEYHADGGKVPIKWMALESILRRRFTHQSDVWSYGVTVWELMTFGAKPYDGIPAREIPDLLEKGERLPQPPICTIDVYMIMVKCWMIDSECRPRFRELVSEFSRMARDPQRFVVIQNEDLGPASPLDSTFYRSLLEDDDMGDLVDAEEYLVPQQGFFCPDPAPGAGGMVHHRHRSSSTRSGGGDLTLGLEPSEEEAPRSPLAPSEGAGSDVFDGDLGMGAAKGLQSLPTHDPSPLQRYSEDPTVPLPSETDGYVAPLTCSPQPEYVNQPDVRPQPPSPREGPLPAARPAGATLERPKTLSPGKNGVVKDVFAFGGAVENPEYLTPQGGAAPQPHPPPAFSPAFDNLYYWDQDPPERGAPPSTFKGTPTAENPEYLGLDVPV

| IC50 [11] [nM] | IC50 [12] [nM] | SMILES | GI50 [1, 13] [nM] | other results |
| --- | --- | --- | --- | --- |
| 36.6 | 101 | CC#CC(=O)Nc1ccc2ncnc(Nc3ccc(Oc4ccc5nccnc5c4)c(C)c3)c2c1 [Compound 211, N-(4-{[3-methyl-4-(quinoxalin-6-yloxy)phenyl]amino}quinazolin-6-yl)but-2-ynamide] | 3.2 |  |
| 18.2 | 804 | CC#CC(=O)Nc1cc2c(Nc3ccc(Oc4ccn5ncnc5c4)c(C)c3)ncnc2cc1OCCNC [Compound 194, N-{4-[(3-methyl-4-{[1,2,4]triazolo[1,5-a]pyridin-7-yloxy}phenyl)amino]-7-[2-(methylamino)ethoxy]quinazolin-6-yl}but-2-ynamide] | 32 |  |
| 1250 | > 10000 | CC#CC(=O)Nc1c(OCCCN(C)C)cc2ncnc(Nc3ccc(Cc4ccn5ncnc5c4)c(C)c3)c2c1F [Compound 209, N-{7-[3-(dimethylamino)propoxy]-5-fluoro-4-[(3-methyl-4-{[1,2,4]triazolo[1,5-a]pyridin-7-ylmethyl}phenyl)amino]quinazolin-6-yl}but-2-ynamide] | > 500 |  |
| 4.7 | 57.5 | CC#CC(=O)Nc1cc2c(Nc3ccc(Oc4ccn5ncnc5c4)c(C)c3)ncnc2cn1 [Compound 199, N-(4-((4-([1,2,4]triazolo[1,5-a]pyridin-7-yloxy)-3-methylphenyl)amino)pyrido[3,4-d]pyrimidin-6-yl)but-2-ynamide] | 2.51 |  |

Second part, the compound before the results:

| SMILES | IC50 [11] [nM] | IC50 [12] [nM] | GI50 [1, 13] [nM] | other results |
| --- | --- | --- | --- | --- |
| CC#CC(=O)Nc1ccc2ncnc(Nc3ccc(Oc4ccc(C)nc4)c(C)c3)c2c1 [Compound 5, N-[4-([3-methyl-4-[(6-methylpyridin-3-yl)oxy]phenyl]amino)quinazolin-6-yl]but-2-ynamide] |  |  |  | GI50 ([1]; 3000 cells per well, 96-well plates (Tables B3-B4), read-out: Cell viability IC50, nM, Ba/F3 ERBB2 A775_G776insYVMA): 8.3 nM; GI50 [2]: 2.3 nM; GI50 [3]: 3.8 nM; GI50 [4]: 6 nM; GI50 [5]: 2.3 nM; GI50 [6]: 44 nM; GI50 [7]: 1.1 nM; GI50 [8]: 1.3 nM; GI50 [9]: 1.1 nM |
| Cc1cc(Nc2ncnc3cc(OCCO)c(NC(=O)C#CC4CC4)cc23)ccc1Oc1ccn2ncnc2c1 [Compound 168, 3-cyclopropyl-N-[7-(2-hydroxyethoxy)-4-[(3-methyl-4-[[1,2,4]triazolo[1,5-a]pyridin-7-yloxy]phenyl)amino]quinazolin-6-yl]prop-2-ynamide] | 17 | 70.9 |  | IC50 [10]: 2.17 nM |
| CNCCOc1cc2ncnc(Nc3ccc(Oc4ccn5ncnc5c4)c(C)c3)c2cc1NC(=O)C#CC1CC1 [Compound 187, 3-cyclopropyl-N-{4-[(3-methyl-4-{[1,2,4]triazolo[1,5-a]pyridin-7-yloxy}phenyl)amino]-7-[2-(methylamino)ethoxy]quinazolin-6-yl}prop-2-ynamide] | 30.5 | 434 | 19.6 |  |
| Cc1cc(Nc2ncnc3cc(OCCN(C)C)c(NC(=O)C#CC(C)(C)C)cc23)ccc1Oc1ccn2ncnc2c1 [Compound 191, N-{7-[2-(dimethylamino)ethoxy]-4-[(3-methyl-4-{[1,2,4]triazolo[1,5-a]pyridin-7-yloxy}phenyl)amino]quinazolin-6-yl}-4,4-dimethylpent-2-ynamide] | 93.2 | > 10000 | 177 |  |
| Cc1cc(Nc2ncnc3ccc(NC(=O)C#CC4(C)CC4)cc23)ccc1Oc1ccn2ncnc2c1 [Compound 185, N-{4-[(3-methyl-4-{[1,2,4]triazolo[1,5-a]pyridin-7-yloxy}phenyl)amino]quinazolin-6-yl}-3-(1-methylcyclopropyl)prop-2-ynamide] | 17.3 | 680 | 5.11 |  |

Source: patent US20230265098A1, “ALKYNE QUINAZOLINE DERIVATIVES AS INHIBITORS OF ERBB2” (EnLiven Therapeutics, Inc., priority 2020, published 2023)
